Measurements published in ChEMBL document CHEMBL5344434.

What was measured:
[1] = Selectivity index, ratio for cytotoxicity against human HepG2 cells after 24 hrs to antiviral activity against HEV Kernow-C1 infected in gaussia luciferase transfected HepG2 cells pre-infected with virus for 4 hrs followed by compound addition and measured after 24 hrs post infection; type: toxicity, cell-based; conditions: read-out: Selectivity Index
[2] = Selectivity index, ratio for cytotoxicity against human HepG2 cells after 48 hrs to antiviral activity against HEV Kernow-C1 infected in gaussia luciferase transfected HepG2 cells pre-infected with virus for 4 hrs followed by compound addition and measured after 48 hrs post infection; type: toxicity, cell-based; conditions: read-out: Selectivity Index
[3] = Selectivity index, ratio for cytotoxicity against human Huh-7 cells after 24 hrs to antiviral activity against Chikungunya virus ECSA infected in Huh-7 cells expressing GFP pre-infected with virus for 1 hr followed by compound addition and measured after 24 hrs post infection; type: toxicity, cell-based; conditions: read-out: Selectivity Index
[4] = Selectivity index, ratio for cytotoxicity against african green monkey Vero E6 cells after 48 hrs to antiviral activity against RVFV MP-12 infected in Vero E6 cells pre-infected with virus for 1 hr followed by compound addition and measured after 48 hrs post infection; type: toxicity, cell-based, Vero C1008; conditions: read-out: Selectivity Index
[5] = Selectivity index, ratio for cytotoxicity against african green monkey Vero E6 cells after 24 hrs to antiviral activity against SARS-CoV-2 2019-nCoV Muc-IMB-1 infected in Vero E6 cells pre-infected with virus for 1 hr followed by compound addition and measured after 24 hrs post infection; type: toxicity, cell-based, Vero C1008; conditions: read-out: Selectivity Index
[6] = Selectivity index, ratio for cytotoxicity against human Huh-7 cells after 48 hrs to antiviral activity against Chikungunya virus ECSA infected in Huh-7 cells expressing GFP pre-infected with virus for 1 hr followed by compound addition and measured after 48 hrs post infection; type: toxicity, cell-based; conditions: read-out: Selectivity Index
[7] = Selectivity index, ratio for cytotoxicity against african green monkey Vero E6 cells after 48 hrs to antiviral activity against SARS-CoV-2 2019-nCoV Muc-IMB-1 infected in Vero E6 cells pre-infected with virus for 1 hr followed by compound addition and measured after 48 hrs post infection; type: toxicity, cell-based, Vero C1008; conditions: read-out: Selectivity Index
[8] = Selectivity index, ratio for cytotoxicity against african green monkey Vero E6 cells after 24 hrs to antiviral activity against RVFV MP-12 infected in Vero E6 cells pre-infected with virus for 1 hr followed by compound addition and measured after 24 hrs post infection; type: toxicity, cell-based, Vero C1008; conditions: read-out: Selectivity Index
[9] = Cytotoxicity against human HepG2 cells after 24 hrs by MTT assay; type: toxicity, cell-based
Hepatitis E virus [10] = assay: Antiviral activity against HEV Kernow-C1 infected in gaussia luciferase transfected HepG2 cells assessed as reduction in viral replication pre-infected with virus for 4 hrs followed by compound addition and measured after 24 hrs post infection by luminometer analysis; type: functional, organism-based; conditions: for EC90: time 20 hrs
Hepatitis E virus [11] = assay: Antiviral activity against HEV Kernow-C1 infected in gaussia luciferase transfected HepG2 cells assessed as reduction in viral replication pre-infected with virus for 4 hrs followed by compound addition and measured after 48 hrs post infection by luminometer analysis; type: functional, organism-based; conditions: for EC90: time 44 hrs
[12] = Cytotoxicity against human HepG2 cells after 48 hrs by MTT assay; type: toxicity, cell-based

Row | Compound | selectivity ratio at 24 h [1] | selectivity ratio at 48 h [2] | other results
1 | COC(=O)[C@H]1[C@@H](O)[C@@]2(O)c3c(Cl)cc(OC)cc3O[C@@]2(c2ccc(OC)cc2)[C@@H]1c1ccccc1 (racemic) | 9.3 | 1.8 | –
2 | COC(=O)[C@H]1[C@@H](O)[C@@]2(O)c3c(Cl)cc(Cl)cc3O[C@@]2(c2ccc(OC)cc2)[C@@H]1c1ccccc1 (racemic) | 31.7 | 8.2 | selectivity ratio at 24 h [3]: 57.5; selectivity ratio at 48 h [4]: 7; selectivity ratio at 24 h [5]: 9; selectivity ratio at 48 h [6]: 44.9; selectivity ratio at 48 h [7]: 5.7; selectivity ratio at 24 h [8]: 9.8
3 | COC(=O)[C@H]1[C@@H](O)[C@@]2(O)c3c(F)cc(F)cc3O[C@@]2(c2ccc(OC)cc2)[C@@H]1c1ccccc1 (racemic) | 1 | 1 | –
4 | CONC(=O)[C@H]1[C@@H](O)[C@@]2(O)c3c(Br)cc(Cl)cc3O[C@@]2(c2ccc(OC)cc2)[C@@H]1c1ccccc1 (racemic) | 163 | 4.6 | CC50 at 24 h [9]: 0.464 µM; EC50 (Hepatitis E virus [10]): 0.0041 µM; EC90 (Hepatitis E virus [10]): 0.131 µM; EC50 (Hepatitis E virus [11]): 0.0055 µM; EC90 (Hepatitis E virus [11]): 0.0629 µM; CC50 at 48 h [12]: 0.0263 µM
5 | CONC(=O)[C@H]1[C@@H](O)[C@@]2(O)c3c(OC)cc(OC)cc3O[C@@]2(c2ccc(OC)cc2)[C@@H]1c1ccccc1 (racemic) | 35.4 | 3.8 | CC50 at 24 h [9]: 0.188 µM; EC50 (Hepatitis E virus [10]): 0.0061 µM; EC90 (Hepatitis E virus [10]): 0.029 µM; EC50 (Hepatitis E virus [11]): 0.0037 µM; EC90 (Hepatitis E virus [11]): 0.0273 µM; CC50 at 48 h [12]: 0.0143 µM
6 | COc1ccc([C@@]23Oc4cc(OC)cc(OC)c4[C@]2(O)[C@H](O)[C@H](C(=O)N(C)C)[C@H]3c2ccccc2)cc1 (racemic) [ROCAGLAMIDE] | 19.7 | 2.1 | –
7 | COc1cc(OC)c2c(c1)O[C@@]1(c3ccc(F)cc3)[C@H](c3ccccc3)[C@@H](C(=O)N(C)C)[C@@H](O)[C@@]21O (racemic) | 4.4 | 1.5 | –
8 | COC(=O)[C@H]1[C@@H](O)[C@@]2(O)c3c(Br)cc(OC)cc3O[C@@]2(c2ccc(OC)cc2)[C@@H]1c1ccccc1 (racemic) | 9.7 | 2.5 | –
9 | CONC(=O)[C@H]1[C@@H](O)[C@@]2(O)c3c(Cl)cc(Cl)cc3O[C@@]2(c2ccc(OC)cc2)[C@@H]1c1ccccc1 (racemic) | 65.9 | 3.3 | –
10 | COC(=O)[C@H]1[C@@H](O)[C@@]2(O)c3c(OC)cc(O[C@@H]4O[C@@H]([C@H](O)CO)CO[C@H]4OC)cc3O[C@@]2(c2ccc(OC)cc2)[C@@H]1c1ccccc1 [SILVESTROL] | 76.7 | 6.1 | –
11 | COC(=O)[C@H]1[C@@H](O)[C@@]2(O)c3c(Cl)cc(Cl)cc3O[C@@]2(c2ccc(Br)cc2)[C@@H]1c1ccccc1 (racemic) | 13.4 | 3.7 | –
12 | COC(=O)[C@H]1[C@@H](O)[C@@]2(O)c3c(OC)cc(Br)cc3O[C@@]2(c2ccc(OC)cc2)[C@@H]1c1ccccc1 (racemic) | 160 | 11 | selectivity ratio at 24 h [3]: 637; selectivity ratio at 48 h [4]: 23.1; selectivity ratio at 24 h [5]: 29.5; selectivity ratio at 48 h [6]: 428; selectivity ratio at 48 h [7]: 20.9; selectivity ratio at 24 h [8]: 38.4
13 | COC(=O)[C@H]1[C@@H](O)[C@@]2(O)c3c(OC)cc(OC)cc3O[C@@]2(c2ccc(Br)cc2)[C@@H]1c1ccccc1 (racemic) | 74.1 | 3.2 | –
14 | COC(=O)[C@H]1[C@@H](O)[C@@]2(O)c3c(F)cc(OC)cc3O[C@@]2(c2ccc(OC)cc2)[C@@H]1c1ccccc1 (racemic) | 30.4 | 2.5 | –
15 | COC(=O)[C@H]1[C@@H](O)[C@@]2(O)c3c(Br)cc(Cl)cc3O[C@@]2(c2ccc(OC)cc2)[C@@H]1c1ccccc1 (racemic) | 19 | 2.8 | –
16 | COC(=O)[C@H]1[C@@H](O)[C@@]2(O)c3c(OC)cc(Cl)cc3O[C@@]2(c2ccc(OC)cc2)[C@@H]1c1ccccc1 (racemic) | 79.3 | 7.5 | –
17 | CONC(=O)[C@H]1[C@@H](O)[C@@]2(O)c3c(F)cc(OC)cc3O[C@@]2(c2ccc(OC)cc2)[C@@H]1c1ccccc1 (racemic) | 28.5 | 2.5 | –
18 | COC(=O)[C@H]1[C@@H](O)[C@@]2(O)c3c(OC)cc(OC)cc3O[C@@]2(c2ccc(F)cc2)[C@@H]1c1ccccc1 (racemic) | 10.9 | 1.4 | –
19 | COCOc1cc(F)c2c(c1)O[C@@]1(c3ccc(Br)cc3)[C@H](c3ccccc3)[C@@H](C(=O)OC)[C@@H](O)[C@@]21O (racemic) | 8.1 | 2.1 | –
20 | COCOc1cc(F)c2c(c1)O[C@@]1(c3ccc(OC)cc3)[C@H](c3ccccc3)[C@@H](C(=O)OC)[C@@H](O)[C@@]21O (racemic) | 4.6 | 1.8 | –
21 | CONC(=O)[C@H]1[C@@H](O)[C@@]2(O)c3c(OC)cc(Br)cc3O[C@@]2(c2ccc(OC)cc2)[C@@H]1c1ccccc1 (racemic) | 52800 | 7.4 | –
22 | COc1cc(OC)c2c(c1)O[C@@]1(c3ccc(Cl)cc3)[C@H](c3ccccc3)[C@@H](C(=O)N(C)C)[C@@H](O)[C@@]21O (racemic) | 50.8 | 2.7 | –
23 | COC(=O)[C@H]1[C@@H](O)[C@@]2(O)c3c(Br)cc(Br)cc3O[C@@]2(c2ccc(OC)cc2)[C@@H]1c1ccccc1 (racemic) | 22.1 | 2.6 | –
24 | COc1ccc([C@@]23Oc4cc(OC)cc(F)c4[C@]2(O)[C@H](O)[C@H](C(=O)N(C)C)[C@H]3c2ccccc2)cc1 (racemic) | 14.3 | 2.7 | –
25 | CONC(=O)[C@H]1[C@@H](O)[C@@]2(O)c3c(OC)cc(OC)cc3O[C@@]2(c2ccc(F)cc2)[C@@H]1c1ccccc1 (racemic) | 13.5 | 3.7 | CC50 at 24 h [9]: 0.666 µM; EC50 (Hepatitis E virus [10]): 0.0537 µM; EC90 (Hepatitis E virus [10]): 0.67 µM; EC50 (Hepatitis E virus [11]): 0.0529 µM; EC90 (Hepatitis E virus [11]): 0.338 µM; CC50 at 48 h [12]: 0.143 µM
26 | COC(=O)[C@H]1[C@@H](O)[C@@]2(O)c3c(OC)cc(OC)cc3O[C@@]2(c2ccc(Cl)cc2)[C@@H]1c1ccccc1 (racemic) | 26.4 | 2.2 | –
27 | CONC(=O)[C@H]1[C@@H](O)[C@@]2(O)c3c(OC)cc(OC)cc3O[C@@]2(c2ccc(Cl)cc2)[C@@H]1c1ccccc1 (racemic) | 198 | 4.2 | CC50 at 24 h [9]: 0.529 µM; EC50 (Hepatitis E virus [10]): 0.0028 µM; EC90 (Hepatitis E virus [10]): 0.0238 µM; EC50 (Hepatitis E virus [11]): 0.0023 µM; EC90 (Hepatitis E virus [11]): 0.0182 µM; CC50 at 48 h [12]: 0.01 µM
28 | COC(=O)[C@H]1[C@@H](O)[C@@]2(O)c3c(OC)cc(F)cc3O[C@@]2(c2ccc(OC)cc2)[C@@H]1c1ccccc1 (racemic) | 1 | 1.3 | –
29 | COC(=O)[C@H]1[C@@H](O)[C@@]2(O)c3c(Cl)cc(Br)cc3O[C@@]2(c2ccc(OC)cc2)[C@@H]1c1ccccc1 (racemic) | 122 | 5.1 | –
